Results from patent US8217035B2, “Pyrimidine derivatives used as PI-3-kinase inhibitors” (Novartis AG, priority 2006, dated 2012).
Read-outs that look alike come from different tables or passages of the source.

Tests used:
[1] = system: A2780 ovarian cancer cells; experiment: Cellular proliferation in A2780 cells, Cell Titer Glo (Biological Method 4); type: cell-based; conditions: Homo sapiens
Method in brief: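 A2780 cells seeded at 1,000/well in DMEM with 10% FBS, at least 2 h before compound, then exposed 72 h at 37 °C, 5% CO2. Viable cells measured by Cell Titer Glo luminescence; EC50 calculated from duplicate conditions.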

PI3 kinase alpha = PI3 kinase alpha (Homo sapiens, UniProt P42336); experiment: PI3K ATP depletion assay (Biological Method 1, Assay 3; KinaseGlo luminescence); type: biochemical; conditions: ATP depletion assay, read-out: PI3 Kinase Alpha, IC50
Method in brief: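 Compound in DMSO was mixed with 10 nM PI3 kinase and 5 μg/mL phosphatidylinositol, and the reaction was started with 2 μM ATP. It ran to about 50% ATP depletion and was stopped with KinaseGlo.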

[2] = system: pSer473 Akt in A2780 cells; experiment: pSer473 Akt assay to monitor PI3K pathway in A2780 cells (Biological Method 2, MSD); type: cell-based; conditions: Homo sapiens, inhibition of Akt phosphorylation
Method in brief: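 A2780 ovarian cancer cells in DMEM/10% FBS were treated with compound for 1 h at 37 °C, then lysed. pSer473-Akt and total Akt were measured by MSD electrochemiluminescence immunoassay. The pSer473/total Akt ratio gave % inhibition versus DMSO, from which EC50 was derived.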

[3] = ovarian cancer cell line A2780, Biological Method 4

Chain of PI3 kinase alpha (P42336 whole entry): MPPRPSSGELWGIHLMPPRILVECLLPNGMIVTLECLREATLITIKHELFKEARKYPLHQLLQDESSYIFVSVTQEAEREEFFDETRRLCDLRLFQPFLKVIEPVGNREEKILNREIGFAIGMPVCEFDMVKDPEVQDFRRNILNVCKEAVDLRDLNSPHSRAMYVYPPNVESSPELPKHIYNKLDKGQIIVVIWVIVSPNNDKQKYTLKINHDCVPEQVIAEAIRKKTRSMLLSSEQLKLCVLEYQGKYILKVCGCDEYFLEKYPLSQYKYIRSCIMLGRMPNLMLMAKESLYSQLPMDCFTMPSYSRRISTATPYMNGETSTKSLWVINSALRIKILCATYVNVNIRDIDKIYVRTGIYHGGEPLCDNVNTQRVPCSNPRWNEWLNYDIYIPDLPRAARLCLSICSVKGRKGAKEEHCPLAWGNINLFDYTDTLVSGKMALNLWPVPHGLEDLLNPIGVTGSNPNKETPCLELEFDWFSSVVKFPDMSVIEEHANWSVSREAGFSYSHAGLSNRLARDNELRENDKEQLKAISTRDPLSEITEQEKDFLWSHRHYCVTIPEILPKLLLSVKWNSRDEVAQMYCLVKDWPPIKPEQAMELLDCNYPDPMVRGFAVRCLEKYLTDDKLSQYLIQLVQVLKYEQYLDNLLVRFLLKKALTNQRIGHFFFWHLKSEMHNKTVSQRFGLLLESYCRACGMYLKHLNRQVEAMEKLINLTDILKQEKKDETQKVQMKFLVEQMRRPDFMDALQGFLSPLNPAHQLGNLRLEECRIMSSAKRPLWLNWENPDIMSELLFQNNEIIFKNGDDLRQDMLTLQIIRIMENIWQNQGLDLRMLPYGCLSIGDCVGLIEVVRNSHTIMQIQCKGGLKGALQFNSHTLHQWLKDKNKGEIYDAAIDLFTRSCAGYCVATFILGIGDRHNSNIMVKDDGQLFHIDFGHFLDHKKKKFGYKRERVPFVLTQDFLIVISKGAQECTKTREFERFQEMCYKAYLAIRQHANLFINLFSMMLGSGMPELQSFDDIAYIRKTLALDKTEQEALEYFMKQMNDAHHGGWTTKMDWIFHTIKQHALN
Chain of PI3 kinase alpha (P27986 whole entry partner): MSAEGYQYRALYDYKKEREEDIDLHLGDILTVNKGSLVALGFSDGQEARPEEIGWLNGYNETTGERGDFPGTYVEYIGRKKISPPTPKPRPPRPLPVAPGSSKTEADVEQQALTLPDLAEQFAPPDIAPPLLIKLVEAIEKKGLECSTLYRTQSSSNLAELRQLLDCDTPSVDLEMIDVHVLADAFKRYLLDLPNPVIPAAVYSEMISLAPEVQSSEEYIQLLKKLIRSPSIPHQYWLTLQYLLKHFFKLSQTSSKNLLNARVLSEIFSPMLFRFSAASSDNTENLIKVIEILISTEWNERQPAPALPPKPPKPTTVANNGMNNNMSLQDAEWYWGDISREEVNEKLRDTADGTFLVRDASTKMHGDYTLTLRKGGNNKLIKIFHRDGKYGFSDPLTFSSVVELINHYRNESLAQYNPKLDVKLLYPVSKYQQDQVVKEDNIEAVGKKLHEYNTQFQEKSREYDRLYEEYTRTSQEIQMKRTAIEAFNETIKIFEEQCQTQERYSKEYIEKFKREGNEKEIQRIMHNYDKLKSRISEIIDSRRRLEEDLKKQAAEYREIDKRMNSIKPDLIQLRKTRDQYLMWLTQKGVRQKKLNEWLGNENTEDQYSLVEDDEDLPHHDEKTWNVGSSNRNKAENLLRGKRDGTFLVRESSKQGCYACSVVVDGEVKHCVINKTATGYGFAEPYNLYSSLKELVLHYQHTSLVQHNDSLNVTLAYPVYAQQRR

EC50 ([1]; ovarian cancer cell line A2780) | IC50 (PI3 kinase alpha) | EC50 ([2]; A2780 cells) | EC50 [1, 3] | IC50 (PI3 kinase alpha; Biological Method 1) | EC50 ([2]; A2780, Biological Method 2) | SMILES
< 10000 nM | < 1000 nM | < 1000 nM |  |  |  | CC(=O)c1ccccc1Nc1cc(-c2ccc(N)nc2)nc(N2CCOCC2)n1 [Compound 172]
< 10000 nM | < 1000 nM | < 1000 nM |  |  |  | Nc1ncc(-c2cc(Nc3cccc(F)c3)nc(N3CCOCC3)n2)cn1 [Compound 111]
< 10000 nM | < 1000 nM | < 1000 nM |  |  |  | N#Cc1cnc(Nc2cc(-c3cnc(N)cc3C(F)(F)F)nc(N3CCOCC3)n2)s1 [Compound 144]
< 1000 nM | < 1000 nM | < 1000 nM |  |  |  | CS(=O)(=O)N1CCC(Oc2cc(-c3cnc(N)nc3C(F)(F)F)nc(N3CCOCC3)n2)CC1 [Compound 74]
< 1000 nM | < 1000 nM | < 1000 nM |  |  |  | Nc1ncc(-c2cc(OC3CCN(C(=O)OC4CCCC4)CC3)nc(N3CCOCC3)n2)c(N)n1 [Compound 97]
< 1000 nM | < 1000 nM | < 1000 nM |  |  |  | Nc1ncc(-c2cc(OC3CCN(C(=O)c4ccccc4)CC3)nc(N3CCOCC3)n2)c(N)n1 [Compound 122]
< 10000 nM | < 1000 nM | < 1000 nM |  |  |  | CC(C)N1CCC(Oc2cncc(-c3cc(-c4cnc(N)cc4C(F)(F)F)nc(N4CCOCC4)n3)c2)C1 (stereo not drawn) [Compound 129]
< 1000 nM | < 1000 nM | < 1000 nM |  |  |  | Nc1ncc(-c2cc(N3CCOC(c4ccccc4)C3)nc(N3CCOCC3)n2)cn1 (stereo not drawn) [Compound 15]
< 1000 nM | < 1000 nM | < 1000 nM |  |  |  | CN1CCC(Oc2ccc(Nc3cc(-c4cnc(N)nc4C(F)(F)F)nc(N4CCOCC4)n3)cn2)CC1 [Compound 62]
< 1000 nM | < 1000 nM | < 1000 nM |  |  |  | Nc1ncc(-c2cc(Nc3ccncc3C(F)(F)F)nc(N3CCOCC3)n2)cn1 [Compound 43]
< 1000 nM | < 1000 nM | < 1000 nM |  |  |  | Cc1cc(Nc2cc(-c3cnc(N)cc3C(F)(F)F)nc(N3CCOCC3)n2)ccn1 [Compound 110]
< 1000 nM | < 1000 nM | < 1000 nM |  |  |  | CS(=O)(=O)c1ccc(Nc2cc(-c3cnc(N)nc3C(F)(F)F)nc(N3CCOCC3)n2)cn1 [Compound 78]
< 10000 nM | < 1000 nM | < 1000 nM |  |  |  | CC(C)OC(=O)N1CCC[C@H](Oc2cc(-c3cnc(N)nc3N)nc(N3CCOCC3)n2)C1 [Compound 167]
 |  |  | < 1000 nM | < 1000 nM | < 1000 nM | COc1ccc2ncc(Nc3cc(-c4cnc(N)nc4)nc(N4CCOCC4)n3)cc2c1 [Compound 206]
< 10000 nM | < 1000 nM | < 1000 nM |  |  |  | CS(=O)(=O)c1ccc(Nc2cc(-c3ccc(N)nc3)nc(N3CCOCC3)n2)cc1 [Compound 112]
< 1000 nM | < 1000 nM | < 1000 nM |  |  |  | Cc1nc(N)ncc1-c1nc(N2CCOCC2)nc(Nc2cnc3ccccc3c2)c1C [Compound 185]
< 10000 nM | < 1000 nM | < 1000 nM |  |  |  | Nc1ccc(-c2cc(Nc3ccccc3S(N)(=O)=O)nc(N3CCOCC3)n2)cn1 [Compound 187]
< 1000 nM | < 1000 nM | < 1000 nM |  |  |  | Cn1cnnc1-c1cccc(Nc2cc(-c3cnc(N)cc3C(F)(F)F)nc(N3CCOCC3)n2)c1 [Compound 171]
 |  |  | < 1000 nM | < 1000 nM | < 1000 nM | Cc1cc(N)ncc1-c1cc(Nc2cnc3ccccc3c2)nc(N2CCOCC2)n1 [Compound 201]
< 1000 nM | < 1000 nM | < 1000 nM |  |  |  | Nc1ncc(-c2cc(O[C@H]3CCOC3)nc(N3CCOCC3)n2)c(=O)[nH]1 [Compound 39]
< 1000 nM | < 1000 nM | < 1000 nM |  |  |  | Nc1ncc(-c2cc(Nc3ccc4nccnc4c3)nc(N3CCOCC3)n2)cn1 [Compound 38]
< 10000 nM | < 1000 nM | < 1000 nM |  |  |  | COC(=O)N1CCC[C@H](Oc2cc(-c3cnc(N)nc3N)nc(N3CCOCC3)n2)C1 [Compound 75]
< 10000 nM | < 1000 nM | < 1000 nM |  |  |  | Nc1cc(C(F)(F)F)c(-c2cc(-c3cncc(OC4CCNCC4)c3)nc(N3CCOCC3)n2)cn1 [Compound 88]
< 1000 nM | < 1000 nM | < 1000 nM |  |  |  | Nc1ncc(-c2cc(OC3CCN(C(=O)OCc4ccccc4)CC3)nc(N3CCOCC3)n2)c(=O)[nH]1 [Compound 34]
< 10000 nM | < 1000 nM | < 1000 nM |  |  |  | CS(=O)(=O)N1CCC[C@@H](Oc2cc(-c3cnc(N)nc3N)nc(N3CCOCC3)n2)C1 [Compound 127]
< 10000 nM | < 1000 nM | < 1000 nM |  |  |  | Nc1cc(C(F)(F)F)c(-c2cc(OC3CCN(C(=O)c4ccccc4)CC3)nc(N3CCOCC3)n2)cn1 [Compound 83]

EC50 ([1]; ovarian cancer cell line A2780) | IC50 (PI3 kinase alpha) | EC50 ([2]; A2780 cells) | EC50 [1, 3] | IC50 (PI3 kinase alpha; Biological Method 1) | EC50 ([2]; A2780, Biological Method 2) | SMILES
< 1000 nM | < 1000 nM | < 1000 nM |  |  |  | Nc1ncc(-c2cc(Nc3ccncc3)nc(N3CCOCC3)n2)cn1 [Compound 44]
< 25000 nM | < 1000 nM | < 1000 nM |  |  |  | CS(=O)(=O)Nc1nc2ccccc2cc1-c1cc(-c2ccc(N)nc2)nc(N2CCOCC2)n1 [Compound 157]
< 10000 nM | < 1000 nM | < 1000 nM |  |  |  | Nc1ccc(-c2cc(Nc3ccnc(Cl)c3)nc(N3CCOCC3)n2)cn1 [Compound 155]
< 10000 nM | < 1000 nM | < 1000 nM |  |  |  | Nc1cc(C(F)(F)F)c(-c2cc(-c3nccs3)nc(N3CCOCC3)n2)cn1 [Compound 138]
 |  |  | < 1000 nM | < 1000 nM | < 10000 nM | COc1ccc2ncc(Nc3cc(-c4ccc(N)nc4)nc(N4CCOCC4)n3)cc2c1 [Compound 211]
< 1000 nM | < 1000 nM | < 1000 nM |  |  |  | CS(=O)(=O)c1cccc(-c2cc(-c3cnc(N)cc3C(F)(F)F)nc(N3CCOCC3)n2)c1 [Compound 95]
< 1000 nM | < 1000 nM | < 1000 nM |  |  |  | CC(C)C(=O)N1CCC(Oc2cc(-c3cnc(N)nc3N)nc(N3CCOCC3)n2)CC1 [Compound 134]
< 1000 nM | < 1000 nM | < 1000 nM |  |  |  | Nc1ncc(-c2cc(OC3CCN(C(=O)c4ccccc4)CC3)nc(N3CCOCC3)n2)c(C(F)(F)F)n1 [Compound 124]
< 1000 nM | < 1000 nM | < 1000 nM |  |  |  | CCN(CC)Cc1cnc(Nc2cc(-c3cnc(N)nc3C(F)(F)F)nc(N3CCOCC3)n2)s1 [Compound 40]
 |  |  | < 1000 nM | < 1000 nM | < 1000 nM | Nc1ncc(-c2cc(Nc3cnc4ccccc4c3)nc(N3CCOCC3)n2)cc1F [Compound 202]
< 1000 nM | < 1000 nM | < 1000 nM |  |  |  | CC(C)OC(=O)N1CCC(Oc2cc(-c3cnc(N)nc3N)nc(N3CCOCC3)n2)CC1 [Compound 131]
< 1000 nM | < 1000 nM | < 1000 nM |  |  |  | Nc1ccc(-c2cc(Nc3ccncc3F)nc(N3CCOCC3)n2)cn1 [Compound 196]
< 1000 nM | < 1000 nM | < 1000 nM |  |  |  | Nc1ncc(-c2cc(O[C@@H]3CCOC3)nc(N3CCOCC3)n2)c(=O)[nH]1 [Compound 56]
< 1000 nM | < 1000 nM | < 1000 nM |  |  |  | CC(C)N1CCC(Oc2ccc(Nc3cc(-c4cnc(N)nc4C(F)(F)F)nc(N4CCOCC4)n3)cn2)CC1 [Compound 41]
< 1000 nM | < 1000 nM | < 1000 nM |  |  |  | COc1cccc2ncc(Nc3cc(-c4cnc(N)nc4)nc(N4CCOCC4)n3)cc12 [Compound 7]
< 10000 nM | < 1000 nM | < 1000 nM |  |  |  | NC(=O)c1cccc(Nc2cc(-c3ccc(N)nc3)nc(N3CCOCC3)n2)c1 [Compound 166]
< 1000 nM | < 1000 nM | < 1000 nM |  |  |  | N#Cc1cc(N)ncc1-c1cc(Nc2ccncc2C(F)(F)F)nc(N2CCOCC2)n1 [Compound 94]
< 1000 nM | < 1000 nM | < 1000 nM |  |  |  | CC(C)C(=O)N1CCC(Oc2cc(-c3cnc(N)[nH]c3=O)nc(N3CCOCC3)n2)CC1 [Compound 49]
 |  |  | < 25000 nM | < 1000 nM | < 1000 nM | CC(C)Oc1ncccc1Nc1cc(-c2cnc(N)cc2C(F)(F)F)nc(N2CCOCC2)n1 [Compound 204]
< 1000 nM | < 1000 nM | < 1000 nM |  |  |  | COc1nc(N)ncc1-c1cc(Nc2cnc3ccccc3c2)nc(N2CCOCC2)n1 [Compound 161]
 |  |  | < 25000 nM | < 1000 nM | < 10000 nM | CS(=O)(=O)c1ccc(Nc2cc(-c3cnc(N)nc3N)nc(N3CCOCC3)n2)cn1 [Compound 214]
< 10000 nM | < 1000 nM | < 1000 nM |  |  |  | Nc1ccc(-c2cc(-c3cccnc3NCCO)nc(N3CCOCC3)n2)cn1 [Compound 104]
< 1000 nM | < 1000 nM | < 1000 nM |  |  |  | Nc1ncc(-c2cc(N3CCOc4ccccc43)nc(N3CCOCC3)n2)cn1 [Compound 65]
< 10000 nM | < 1000 nM | < 1000 nM |  |  |  | Nc1ccc(-c2cc(Nc3ccc(S(N)(=O)=O)cc3)nc(N3CCOCC3)n2)cn1 [Compound 190]
< 10000 nM | < 1000 nM | < 1000 nM |  |  |  | Nc1cc(C(F)(F)F)c(-c2cc(N3CCOCC3Cc3ccccc3)nc(N3CCOCC3)n2)cn1 (stereo not drawn) [Compound 113]
< 1000 nM | < 1000 nM | < 1000 nM |  |  |  | COC(=O)N1CCC(Oc2cc(-c3cnc(N)[nH]c3=O)nc(N3CCOCC3)n2)CC1 [Compound 31]
